{
  "source": "patent US9242937B2",
  "about": "“Pharmaceutically active disubstituted pyridine derivatives” (Bayer Intellectual Property GmbH, priority 2011, dated 2016)",
  "test_system": "cellular CDK9 activity (RNA Polymerase II Ser2 phosphorylation) in HCT-116 cells",
  "assay": "RNA-Polymerase II Ser2 cellular phosphorylation assay",
  "type": "cell-based",
  "conditions": "Homo sapiens, 72 h, normalized with tubulin, read-out: RNA Polymerase II Ser2 Phosphorylation (activity range), IC50",
  "procedure": "HCT-116 cells (DSMZ, Braunschweig, Germany) were maintained in Mc Coy's cell culture medium+glutamine (PAN Biotech GmbH, Aidenbach, Germany) supplemented with 10% fetal calf serum (PAA Laboratories GmbH, Pasching, Austria) and grown at 37° C., 5% CO2. For the cellular phosphorylation assay, cells were seeded with 2×10^5 cells/well/1 ml in 24-well plates (Greiner Bio One, Frickenhausen, Germany; catalog #662160). The compounds of general formula (I) summarized in Table 6 were diluted from a 10 mM DMSO stock solution 1:10 in a total volume of 15 μL DMSO. After overnight incubation at 37° C./5% CO2, 1.5 μL of a compound diluted in DMSO was added to each sample well. Wells with cells and 0.15% DMSO in culture medium were used as positive controls, wells without cells and 0.15% DMSO in culture medium were used as negative controls. The cells were incubated with the compounds for 72 h at 37° C./5% CO2. […] Phosphorylation of RNA Polymerase II Ser2 and tubulin levels for normalization were analyzed afterwards with the Multi-Array technology (Meso Scale Discovery, Gaithersburg, Md., USA), a combination of antibody coupled electrochemiluminescence detection and patterned arrays. […] Finally, plates were washed three times with Tris Wash Buffer, 150 μl 2× Read Buffer (Meso Scale Discovery) were added per well and plates were analyzed immediately in a Sector Imager from Meso Scale Discovery. […]",
  "data": [
    {"smiles": "COc1ccccc1-c1ccnc(Nc2cccc(S(N)(=O)=O)c2)c1", "note": "[Compound D1, 3-[(4-(2-Methoxyphenyl)pyridin-2-yl)amino]benzenesulfonamide]", "values": [
      {"measurement": "IC50", "value": "1 to 10", "unit": "µM"}
    ]}
  ]
}
